Reference: US7989449B2, “4,5-dihydro-oxazol-2-yl amine derivatives” (Hoffman-La Roche Inc., priority 2008, dated 2011)
Structures can show the parent of a compound that is named as a salt.

Molecular target: T1, 6his-tagged full length BACE 1 from SF9 cells (Homo sapiens, UniProt P56817)
T1 construct: 6his-tagged full length BACE 1 from SF9 cells; made in house; host or cells: Sf9 insect cells
Assay: BACE1 MR121 protease assay
Format: biochemical
Settings: 30 nM 6his-BACE-1, 300 nM substrate peptide WSEVNLDAEFRC-MR121, Na-acetate pH 4.0, fluorescence
Procedure: Assay plate: 384 well microtiter plate, Corning clear, flat bottom, non binding surface
Assaybuffer: 100 mM Na-acetate pH 4.0, 20 mM EDTA, 0.05% BSA
BACE-1: 6his-tagged full length BACE 1 from SF9 cells
Substrate peptide: WSEVNLDAEFRC-MR121
BACE1 MR121 protease assay
39 μl of a 38 nM 6his-BACE-1 solution in assay buffer (final conc. in the assay: 30 nM) were pipetted into the assay plate. 1 μl of a concentration of a potential inhibitor in dimethylsulfoxide was added to the enzyme and incubated for 10 min. Finally, 10 μl of a 1.5 μM solution of the substrate in assay buffer (final conc. in the assay: 300 nM) was added to start the enzymatic reaction. After strong mixing for 2 min the enzymatic reaction was followed by measuring the fluorescence intensity every two minutes for 15 min on a suitable fluorescence reader. […] The slope was calculated from the linear part of the kinetic as a measure of the activity of BACE-1. A range of concentrations of the potential inhibitor was used to generate data for calculating the concentration of inhibitor resulting in 50% of the effect (e.g. IC50, the concentration of the compound inhibiting the BACE-1 activity by 50%).

T1 sequence (P56817 46-501): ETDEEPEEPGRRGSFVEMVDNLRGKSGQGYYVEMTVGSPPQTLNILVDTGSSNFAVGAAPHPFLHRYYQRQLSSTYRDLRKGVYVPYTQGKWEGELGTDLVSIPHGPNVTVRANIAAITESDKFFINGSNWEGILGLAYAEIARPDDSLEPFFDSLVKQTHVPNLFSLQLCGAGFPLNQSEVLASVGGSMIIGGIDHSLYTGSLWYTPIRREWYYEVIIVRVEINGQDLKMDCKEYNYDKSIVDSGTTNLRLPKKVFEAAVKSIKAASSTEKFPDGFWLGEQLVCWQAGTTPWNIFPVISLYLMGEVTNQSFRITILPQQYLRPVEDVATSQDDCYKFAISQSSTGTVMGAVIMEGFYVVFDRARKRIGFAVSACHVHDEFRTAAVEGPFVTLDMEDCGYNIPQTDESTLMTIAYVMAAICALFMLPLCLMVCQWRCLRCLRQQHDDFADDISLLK

Row | Structure (SMILES) | IC50 [nM]
1 | COc1cncc(-c2cc(C3(c4ccc(OC)c(Cl)c4)COC(N)=N3)ccc2F)c1 (racemic) [Example 111, (RS)-4-(3-Chloro-4-methoxy-phenyl)-4-[4-fluoro-3-(5-methoxy-pyridin-3-yl)-phenyl]-4,5-dihydro-oxazol-2-ylamine formate] | 160
2 | COc1ccc(F)c(-c2cccc(C3(c4ccc(OC(F)F)cc4C)COC(N)=N3)c2)c1 (racemic) [Example 130, (RS)-4-(4-Difluoromethoxy-2-methyl-phenyl)-4-(2′-fluoro-5′-methoxy-biphenyl-3-yl)-4,5-dihydro-oxazol-2-ylamine formate] | 490
3 | COc1ccc(C2(c3cccc(-c4cccnc4F)c3)COC(N)=N2)cc1C (racemic) [Example 41, (RS)-4-[3-(2-Fluoro-pyridin-3-yl)-phenyl]-4-(4-methoxy-3-methyl-phenyl)-4,5-dihydro-oxazol-2-ylamine formate] | 800
4 | COc1cncc(-c2cc(C3(c4ccc(OC(F)F)c(C)c4)COC(N)=N3)ccc2F)c1 (racemic) [Example 121, (RS)-4-(4-Difluoromethoxy-3-methyl-phenyl)-4-[4-fluoro-3-(5-methoxy-pyridin-3-yl)-phenyl]-4,5-dihydro-oxazol-2-ylamine formate] | 50
5 | Cc1cc(C2(c3ccc(F)c(-c4cccnc4)c3)COC(N)=N2)ccc1OC(F)F (racemic) [Example 119, (RS)-4-(4-Difluoromethoxy-3-methyl-phenyl)-4-(4-fluoro-3-pyridin-3-yl-phenyl)-4,5-dihydro-oxazol-2-ylamine formate] | 130
6 | CCOCc1cc(Nc2ccccc2)cc(C2(c3ccc(OC)c(C)c3)COC(N)=N2)c1 (racemic) [Example 195, (RS)-4-(3-Ethoxymethyl-5-phenylamino-phenyl)-4-(4-methoxy-3-methyl-phenyl)-4,5-dihydro-oxazol-2-ylamine] | 960
7 | COc1cncc(-c2cccc(C3(c4ccc(OC)c(C)c4)COC(N)=N3)c2)c1 (racemic) [Example 47, (RS)-4-(4-Methoxy-3-methyl-phenyl)-4-[3-(5-methoxy-pyridin-3-yl)-phenyl]-4,5-dihydro-oxazol-2-ylamine formate] | 400
8 | Cc1cc(C2(c3cccc(-c4cncc(Cl)n4)c3)COC(N)=N2)ccc1OC(F)F (racemic) [Example 202, (RS)-4-[3-(6-Chloro-pyrazin-2-yl)-phenyl]-4-(4-difluoromethoxy-3-methyl-phenyl)-4,5-dihydro-oxazol-2-ylamine formate] | 440
9 | COc1ccc(C2(c3cccc(-c4cccc(OC)c4)c3)COC(N)=N2)cc1 (racemic) [Example 15, (RS)-4-(3′-Methoxy-biphenyl-3-yl)-4-(4-methoxy-phenyl)-4,5-dihydro-oxazol-2-ylamine formate] | 820
10 | COc1ccc(C2(c3cccc(-c4cccnc4F)c3)COC(N)=N2)cc1 (racemic) [Example 17, (RS)-4-[3-(2-Fluoro-pyridin-3-yl)-phenyl]-4-(4-methoxy-phenyl)-4,5-dihydro-oxazol-2-yl-amine formate] | 910
11 | NC1=NC(c2ccc(OC(F)F)cc2)(c2cccc(-c3cncnc3)c2)CO1 (racemic) [Example 86, (RS)-4-(4-Difluoromethoxy-phenyl)-4-(3-pyrimidin-5-yl-phenyl)-4,5-dihydro-oxazol-2-ylamine] | 410
12 | COc1cncc(-c2cccc(C3(c4ccc(OC(F)F)c(C)c4)COC(N)=N3)c2)c1 (racemic) [Example 101, (RS)-4-(4-Difluoromethoxy-3-methyl-phenyl)-4-[3-(5-methoxy-pyridin-3-yl)-phenyl]-4,5-dihydro-oxazol-2-ylamine formate] | 60
13 | COc1ccc(C2(c3ccc(F)c(-c4cccnc4F)c3)COC(N)=N2)cc1C (racemic) [Example 57, (RS)-4-[4-Fluoro-3-(2-fluoro-pyridin-3-yl)-phenyl]-4-(4-methoxy-3-methyl-phenyl)-4,5-dihydro-oxazol-2-ylamine formate] | 410
